Converted amounts (≈) assume the structure as drawn.
Tests used:
Format in all cases: functional
Acinetobacter baumannii [1] = assay: Antibacterial activity against blaOXA-24-positive Acinetobacter baumannii isolate RUH134 harboring plasmid ABVA01 by CLSI broth microdilution method
Acinetobacter baumannii [2] = assay: Antibacterial activity against blaOXA-24-positive Acinetobacter baumannii isolate RUH134 by CLSI broth microdilution method
Acinetobacter baumannii [3] = assay: Antibacterial activity against blaOXA-24-positive Acinetobacter baumannii isolate N50 by CLSI broth microdilution method
Acinetobacter baumannii [4] = assay: Antibacterial activity against blaOXA-24-positive Acinetobacter baumannii isolate VA-566/00 by CLSI broth microdilution method
Acinetobacter baumannii [5] = assay: Antibacterial activity against blaOXA-24-positive Acinetobacter baumannii isolate VA-566/00 by CLSI broth microdilution method in presence of Sulbactam
Acinetobacter baumannii [6] = assay: Antibacterial activity against blaOXA-24-positive Acinetobacter baumannii isolate RUH134 by CLSI broth microdilution method in presence of Sulbactam
Acinetobacter baumannii [7] = assay: Antibacterial activity against blaOXA-24-positive Acinetobacter baumannii isolate RUH134 harboring plasmid ABVA01 by CLSI broth microdilution method in presence of Sulbactam
Acinetobacter baumannii [8] = assay: Antibacterial activity against blaOXA-24-positive Acinetobacter baumannii isolate N50 by CLSI broth microdilution method in presence of Sulbactam

Compound	MIC (Acinetobacter baumannii [1]) [mg/L]	MIC (Acinetobacter baumannii [2]) [mg/L]	MIC (Acinetobacter baumannii [3]) [mg/L]	MIC (Acinetobacter baumannii [4]) [mg/L]	MIC (Acinetobacter baumannii [5]) [mg/L]	MIC (Acinetobacter baumannii [6]) [mg/L]	MIC (Acinetobacter baumannii [7]) [mg/L]	MIC (Acinetobacter baumannii [8]) [mg/L]
NCC[C@H](O)C(=O)N[C@@H]1C[C@H](N)[C@@H](O[C@H]2O[C@H](CN)[C@@H](O)[C@H](O)[C@H]2O)[C@H](O)[C@H]1O[C@H]1O[C@H](CO)[C@@H](O)[C@H](N)[C@H]1O [AMIKACIN]	4 (≈ 6.83 µM)	4 (≈ 6.83 µM)	256 (≈ 437 µM)	64 (≈ 109 µM)				
CC1(C)S[C@@H]2[C@H](NC(=O)[C@H](N)c3ccccc3)C(=O)N2[C@H]1C(=O)O [AMPICILLIN]					64	64	64	32
CC(C)(O/N=C(\C(=O)N[C@@H]1C(=O)N2C(C(=O)[O-])=C(C[n+]3ccccc3)CS[C@H]12)c1csc(N)n1)C(=O)O [CEFTAZIDIME]	16 (≈ 29.3 µM)	16 (≈ 29.3 µM)	> 256	> 256				
C[C@@H](O)[C@H]1C(=O)N2C(C(=O)O)=C(SCCNC=N)C[C@H]12 [IMIPENEM ANHYDROUS]	64 (≈ 214 µM)	0.25 (≈ 0.835 µM)	128 (≈ 428 µM)	256 (≈ 855 µM)				
C[C@@H](O)[C@H]1C(=O)N2C(C(=O)O)=C(S[C@@H]3CN[C@H](C(=O)N(C)C)C3)[C@H](C)[C@H]12 [MEROPENEM]	128 (≈ 334 µM)	1 (≈ 2.61 µM)	128 (≈ 334 µM)	256 (≈ 668 µM)				
CN(C)c1cc(NC(=O)CNC(C)(C)C)c(O)c2c1C[C@H]1C[C@H]3[C@H](N(C)C)C(O)=C(C(N)=O)C(=O)[C@@]3(O)C(O)=C1C2=O [TIGECYCLINE]	1 (≈ 1.71 µM)	1 (≈ 1.71 µM)	1 (≈ 1.71 µM)	4 (≈ 6.83 µM)				
COLISTIN	0.5	0.5	> 8	0.5				
GENTAMICIN	> 256	> 256	> 256	> 256				

— ChEMBL document CHEMBL1649555, “Characterization of pABVA01, a plasmid encoding the OXA-24 carbapenemase from Italian isolates of Acinetobacter baumannii” (2009)
